From patent US10119168B2, “Methods for the treatment of kidney fibrosis” (priority 2014, dated 2018)

Tested on: mouse kidney
Experiment: RNA-seq of kidney gene expression over time in FA nephropathy progression (Table 1)
Format: in vivo
Text: Identification of Candidate Genes for Biomarkers of Kidney Fibrosis Through RNA-Seq. […] To select genes that are indicative of fibrosis candidates were considered from this later group that had robust upregulation (>5-fold with >100 read counts at peak) over time as fibrosis progresses. Another important criteria was the location of the protein product of the gene, either in extracellular matrix or transmembrane, to increase the chance of detecting it in the urine and use it as a biomarker(11).
(§1) RNA samples (n=3 mice/time point) were sequenced at the Bioplymers Facility at the Harvard Medical School. Libraries were prepared from 10 ng total RNA per sample using the IntegenX Apollo 324 system and NuGEN SPIA reagents. Libraries were multiplexed in groups of three per lane of a flowcell and 50 cycle, paired-end sequencing was performed on an Illumina HiSeq2000 instrument. Illumina sequence quality was surveyed with FastQC (available on the world wide web at bioinformatics.babraham.ac.uk/projects/fastqc/) to ensure suitability of library generation and sequencing for further analysis. Adapters and lower quality bases were trimmed with Cutadapt (available on the world wide web at code.google.com/p/cutadapt/), using a Phred quality cutoff of 20, and reassessed with FastQC. Trimmed reads were aligned to the Ensembl NCBIM37 Mus musculus genome build with TopHat2. Aligned reads were summarized at the gene level against the Illumina iGenomes (available on the world wide web at tophat.cbcb.umd.edu/igenomes.html) NCBIM37 Mus musculus gene annotations using HTSeq (available on the world wide web at huber.embl.de/users/anders/HTSeq/doc/overview.html). […] The full dataset is available in the NCBI GEO database with the accession number GSE65267. Raw data is accessible on the world wide web at ncbi.nlm.nih.gov/geo/query/acc.cgi?acc=GSE65267.
Mice were sacrificed at 1, 2, 3, 7 and 14 days following administration. […] All mice were sacrificed at 14 days.
as §1, with “The quantity and quality of mRNA” for “RNA samples (n=3 mice/time point)”, “assayed on an Agilent 2200 TapeStation instrument and by SYBR qPCR assay.” for “sequenced at the Bioplymers Facility at the Harvard Medical School.”, “(https://code.google.com/p/cutadapt/),” for “(available on the world wide web at code.google.com/p/cutadapt/),”

## Nc1nc2ncc(CNc3ccc(C(=O)N[C@@H](CCC(=O)O)C(=O)O)cc3)nc2c(=O)[nH]1 [FA, folic acid]
Day 2
  Slco1a1 mean fold change from normal: 0.16 fold
  Smoc2 mean fold change from normal: 0.06 fold
  Smpdl3b mean fold change from normal: 124.22 fold
  Snx31 mean fold change from normal: 0.05 fold
  Socs1 mean fold change from normal: 53.23 fold
  Sox4 mean fold change from normal: 13.93 fold
  Sox9 mean fold change from normal: 49.89 fold
  Spaca7 mean fold change from normal: 74.80 fold
  Spink6 mean fold change from normal: 13.93 fold
  Spp1 mean fold change from normal: 174.85 fold
  Spred3 mean fold change from normal: 11.03 fold
  Spsb1 mean fold change from normal: 13.04 fold
  Spt1c3 mean fold change from normal: 0.11 fold
  St8sia2 mean fold change from normal: 2.10 fold
  Stil mean fold change from normal: 32.74 fold
  Stk32a mean fold change from normal: 7.59 fold
  Stra6 mean fold change from normal: 1.95 fold
  Susd2 mean fold change from normal: 0.07 fold
  Sycn mean fold change from normal: 0.07 fold
  Synpr mean fold change from normal: 0.02 fold
  Sytl2 mean fold change from normal: 5.53 fold
  Tagln2 mean fold change from normal: 6.40 fold
  Tbx10 mean fold change from normal: 0.10 fold
  Timd2 mean fold change from normal: 2.97 fold
  Timp1 mean fold change from normal: 194.76 fold
  Tlr2 mean fold change from normal: 12.76 fold
  Tmem25 mean fold change from normal: 0.34 fold
  Tmem26 mean fold change from normal: 0.07 fold
  Tmem207 mean fold change from normal: 0.02 fold
  Tmsb10 mean fold change from normal: 18.72 fold
  Tnc mean fold change from normal: 9.63 fold
  Tnfaip3 mean fold change from normal: 3.85 fold
  Tnfrsf23 mean fold change from normal: 7.62 fold
  Top2a mean fold change from normal: 15.75 fold
  Tpx2 mean fold change from normal: 10.97 fold
  Tril mean fold change from normal: 0.43 fold
  Tsc22d1 mean fold change from normal: 6.92 fold
  Ttc36 mean fold change from normal: 0.10 fold
  Ttr mean fold change from normal: 0.04 fold
  Tyrobp mean fold change from normal: 1.65 fold
  Ugt3a1 mean fold change from normal: 0.07 fold
  Uhrf1 mean fold change from normal: 31.75 fold
  Upp2 mean fold change from normal: 0.11 fold
  Vcam1 mean fold change from normal: 30.80 fold
  Vill mean fold change from normal: 0.28 fold
  Vmn1r18 mean fold change from normal: 0.01 fold
  Vmn1r19 mean fold change from normal: 0.02 fold
  Vmn1r20 mean fold change from normal: 0.34 fold
  Vmn1r-ps11 mean fold change from normal: 0.03 fold
  Vstm2a mean fold change from normal: 0.05 fold
  Vtcn1 mean fold change from normal: 44.16 fold
  Vwce mean fold change from normal: 0.08 fold
  Wfdc15b mean fold change from normal: 0.05 fold
  Ybx2 mean fold change from normal: 0.12 fold
Day 3
  7SK RNA mean fold change from normal: 0.08 fold
  2310042D19Rik mean fold change from normal: 0.47 fold
  4930533I22Rik mean fold change from normal: 0.22 fold
  4933417A18Rik mean fold change from normal: 0.49 fold
  8430408G22Rik mean fold change from normal: 0.34 fold
  9030619P08Rik mean fold change from normal: 0.02 fold
  Slc2a5 mean fold change from normal: 0.21 fold
  Slc4a1 mean fold change from normal: 0.18 fold
  Slc5a4a mean fold change from normal: 0.51 fold
  Slc5a12 mean fold change from normal: 0.38 fold
  Slc6a12 mean fold change from normal: 0.26 fold
  Slc7a13 mean fold change from normal: 0.11 fold
  Slc28a1 mean fold change from normal: 0.18 fold
  Slc34a1 mean fold change from normal: 0.33 fold
  Slc34a2 mean fold change from normal: 7.59 fold
  Slc34a3 mean fold change from normal: 0.09 fold
  Slc46a3 mean fold change from normal: 0.57 fold
  Slco1a1 mean fold change from normal: 0.19 fold
  Smoc2 mean fold change from normal: 1.83 fold
  Smpdl3b mean fold change from normal: 111.13 fold
  Snx31 mean fold change from normal: 0.07 fold
  Socs1 mean fold change from normal: 43.48 fold
  Sox4 mean fold change from normal: 11.69 fold
  Sox9 mean fold change from normal: 52.43 fold
  Spaca7 mean fold change from normal: 18.32 fold
  Spink6 mean fold change from normal: 9.16 fold
  Spp1 mean fold change from normal: 63.01 fold
  Spred3 mean fold change from normal: 8.99 fold
  Spsb1 mean fold change from normal: 4.64 fold
  Spt1c3 mean fold change from normal: 1.02 fold
  St8sia2 mean fold change from normal: 10.17 fold
  Stil mean fold change from normal: 10.68 fold
  Stk32a mean fold change from normal: 5.33 fold
  Stra6 mean fold change from normal: 8.56 fold
  Susd2 mean fold change from normal: 0.32 fold
